Measurements from patent US7902156B2 (Angiochem Inc., priority 2005, dated 2011).
Like-named read-outs stand apart in the source and are kept apart here. Residues, ends and D or L forms follow the SMILES beside them. No end group written: not given here.

Tests used:
[1] = system: in vitro model of the BBB (co-culture of bovine brain capillary endothelial cells and rat glial cells); assay: First level screening: peptide passage in the in vitro BBB model, Coomassie blue detection; details: 90 minutes at 37° C.
Source text: An in vitro model was used for screening assay and for mechanistic studies of drug transport to the brain. […] The model consists of a co-culture of bovine brain capillary endothelial cells and rat glial cells. It presents ultrastructural features characteristic of brain endothelium including tight junctions, lack of fenestration, lack of transendothelial channels, low permeability for hydrophilic molecules and a high electrical resistance.
The in vitro model of BBB was established by using a co-culture of BBCECs and astrocytes. Prior to cell culture, plate inserts (Millicell-PC 3.0 μM; 30-mm diameter) were coated on the upper side with rat tail collagen. They were then set in six-well microplates containing the astrocytes and BBCECs were plated on the upper side of the filters in 2 mL of co-culture medium. This BBCEC medium was changed three times a week. Under these conditions, differentiated BBCECs formed a confluent monolayer 7 days later. Experiments were performed between 5 and 7 days after confluence was reached. The permeability coefficient for sucrose was measured to verify the endothelial permeability.
Briefly, after removing the meninges, the brain tissue was forced gently through an 82 μm nylon sieve. Astrocytes were plated on six-well microplates at a concentration of 1.2×10^5 cells/mL in 2 mL of optimal culture medium (DMEM) supplemented with 10% heat inactivated fetal bovine serum. The medium was changed twice a week.
Bovine brain capillary endothelial cells (BBCECs) were obtained from Cellial Technologies. The cells were cultured in the presence of DMEM medium supplemented with 10% (v/v) horse serum and 10% heat-inactivated calf serum, 2 mM of glutamine, 50 μg/mL of gentamycin, and 1 ng/mL of basic fibroblast growth factor, added every other day.
Each peptide was added to the upper side of the inserts covered or non-covered with endothelial cells for 90 minutes at 37° C. […] After 90 minutes of transcytosis, a volume of 50 μl from the basolateral side of the filters covered with endothelial cells (+) or non-covered (−) was also loaded on Tricine gels. To visualize the peptides gels were stained with Coomassie blue.

[2] = system: brain tumor model; details: injected alone at the maximal tolerated dose (54 mg/kg); cited from earlier work
[3] = system: in vitro BBB model (BBCEC monolayers grown on filters in the presence of astrocytes); assay: Permeability coefficient (Pe) / transcytosis capacity in the in vitro BBB model; type: in vitro ADME, bovine; details: third level of selection, peptide at 250 nM
Experimental: At different times, inserts were placed into another well.
Transcytosis capacity of Aprotinin-Paclitaxel conjugate was determined and is reported below in Table 5.

[4] = system: mouse brain; assay: In situ cerebral perfusion with post-perfusion capillary depletion; type: in vivo, mice; details: perfusion 5 min; for Volume of distribution, Capillaries % / Volume of distribution, Parenchyma %: share of homogenate; for Volume of distribution, Homogenate: total brain
Source text: The in situ cerebral perfusion (in mice) was used as the fourth level of selection to select the best peptides. This procedure also distinguishes between compounds remaining in the brain vascular compartment from those having crossed the abluminal endothelial membrane to enter the brain parenchyma. Indeed, the technique of post-perfusion capillary depletion allows to measure whether the molecule really crosses the endothelium to enter the brain parenchyma.

[5] = system: in vitro model of the BBB (bovine brain capillary endothelial cells); assay: Second level screening: [125I]-peptide passage in the in vitro BBB model (cpm ratios)
Experimental: This BBCEC medium was changed three times a week.
The medium was changed twice a week.
Briefly, the selected peptides were iodinated with standard procedures using iodo-beads from Sigma. Two iodo-beads were used for each protein. […] The iodination for each peptide was initiated by adding 100 μg (80-100 μl) of the bead suspension. […] Fractions of 0.5 ml were collected and the radioactivity in 5 μl of each fraction was measured.
The iodinated peptides were also investigated with the in vitro model of the BBB. […] Results were expressed as cpm ratios.

[6] = [125I]-peptide, cpm in bottom chamber / total cpm added, filter covered with endothelial cells, 90 minutes at 37° C.

| Molecule | Peptide detected in the lower side of the chambers by Coomassie blue staining [1] | Permeability coefficient (Pe) [3] | Volume of distribution, Capillaries [4] | Volume of distribution, Capillaries % [4] | Volume of distribution, Homogenate [4] | also measured |
| --- | --- | --- | --- | --- | --- | --- |
| C[C@@H](O)[C@H](N)C(=O)N[C@@H](Cc1ccccc1)C(=O)N[C@@H](Cc1ccccc1)C(=O)N[C@@H](Cc1ccc(O)cc1)C(=O)NCC(=O)NCC(=O)N[C@@H](CO)C(=O)N[C@@H](CCCNC(=N)N)C(=O)NCC(=O)N[C@@H](CCCCN)C(=O)N[C@@H](CCCNC(=N)N)C(=O)N[C@@H](CC(N)=O)C(=O)N[C@@H](CC(N)=O)C(=O)N[C@@H](Cc1ccccc1)C(=O)N[C@@H](CCCCN)C(=O)N[C@H](C(=O)N[C@@H](CCC(=O)O)C(=O)N[C@@H](CCC(=O)O)C(=O)N[C@@H](Cc1ccc(O)cc1)C(=O)O)[C@@H](C)O [Peptide 70, T F F Y G G S R G K R N N F K T E E Y] | detected in the lower side of the chambers | – | – | – | – | – |
| CC(=O)O[C@H]1C(=O)[C@@]2(C)[C@H]([C@H](OC(=O)c3ccccc3)[C@]3(O)C[C@H](OC(=O)[C@H](O)[C@@H](NC(=O)c4ccccc4)c4ccccc4)C(C)=C1C3(C)C)[C@]1(OC(C)=O)CO[C@@H]1C[C@@H]2O [paclitaxel] | – | – | – | – | – | Mouse survival [2]: unable to increase mouse survival |
| TFFYGGCRGKRNNFKTEEY-NH2 [Peptide 67, T F F Y G G C R G K R N N F K T E E Y] | detected in the lower side of the chambers | highest Pe | 13 ml/100 g | 34% | 38 ml/100 g | – |
| PFFYGGCRGKRNNFKTEEY [Peptide 75, P F F Y G G C R G K R N N F K T E E Y] | detected in the lower side of the chambers | – | – | – | – | – |
| TFFYGGSRGNRNNFKTAKY [Peptide 25, T F F Y G G S R G N R N N F K T A K Y] | – | – | 1082 ml/100 g | 95% | 1141 ml/100 g | Volume of distribution, Parenchyma [4]: 60 ml/100 g; Volume of distribution, Parenchyma % [4]: 5% |
| C[C@@H](O)[C@H](NC(=O)[C@H](CCCCN)NC(=O)[C@H](Cc1ccccc1)NC(=O)[C@H](CC(N)=O)NC(=O)[C@H](CC(N)=O)NC(=O)[C@H](CCCNC(=N)N)NC(=O)[C@H](CCCCN)NC(=O)CNC(=O)[C@H](CCCNC(=N)N)NC(=O)[C@H](CS)NC(=O)[C@H](CO)NC(=O)CNC(=O)[C@H](Cc1ccc(O)cc1)NC(=O)[C@H](Cc1ccccc1)NC(=O)[C@H](Cc1ccccc1)NC(=O)[C@@H](NC(=O)[C@@H](N)CS)[C@@H](C)O)C(=O)N[C@@H](CCC(=O)O)C(=O)N[C@@H](CCC(=O)O)C(=O)N[C@@H](Cc1ccc(O)cc1)C(=O)O [Peptide 73, CTFFYGSCRGKRNNFKTEEY] (H-CTFFYGSCRGKRNNFKTEEY-OH; N-terminus and C-terminus assumed) | detected in the lower side of the chambers | – | – | – | – | – |
| TFFYGGKRGKRNNFKTAEY [Peptide 79, T F F Y G G K R G K R N N F K T A E Y] | detected in the lower side of the chambers | highest Pe | 52 ml/100 g | 74% | 70 ml/100 g | Volume of distribution, Parenchyma [4]: 18 ml/100 g; Volume of distribution, Parenchyma % [4]: 26% |
| RFKYGGCLGNKNNFLRLKY [Peptide 90, R F K Y G G C L G N K N N F L R L K Y] | detected in the lower side of the chambers | highest Pe | 76 ml/100 g | 88% | 87 ml/100 g | Volume of distribution, Parenchyma [4]: 11 ml/100 g; Volume of distribution, Parenchyma % [4]: 12% |
| TFFYGGCRGKKNNFKRAKY [Peptide 8, T F F Y G G C R G K K N N F K R A K Y] | detected in the lower side of the chambers | highest Pe | 204 ml/100 g | 82% | 250 ml/100 g | Volume of distribution, Parenchyma [4]: 46 ml/100 g; Volume of distribution, Parenchyma % [4]: 18% |
| TFFYGGCRAKRNNFKRAKY-NH2 [Peptide 5, T F F Y G G C R A K R N N F K R A K Y] | detected in the lower side of the chambers | highest Pe | 217 ml/100 g | 73% | 312 ml/100 g | Ratio +cells/initial [5, 6]: 0.051 |
| C[C@@H](O)[C@H](NC(=O)[C@H](CCCCN)NC(=O)[C@H](Cc1ccccc1)NC(=O)[C@H](CC(N)=O)NC(=O)[C@H](CC(N)=O)NC(=O)[C@H](CCCNC(=N)N)NC(=O)[C@H](CCCCN)NC(=O)CNC(=O)[C@H](CCCNC(=N)N)NC(=O)[C@H](CS)NC(=O)[C@H](CS)NC(=O)CNC(=O)[C@H](Cc1ccc(O)cc1)NC(=O)[C@H](Cc1ccccc1)NC(=O)[C@H](Cc1ccccc1)NC(=O)[C@@H](NC(=O)[C@@H](N)CS)[C@@H](C)O)C(=O)N[C@@H](CCC(=O)O)C(=O)N[C@@H](CCC(=O)O)C(=O)N[C@@H](Cc1ccc(O)cc1)C(=O)O [Peptide 71, CTFFYGCCRGKRNNFKTEEY] (H-CTFFYGCCRGKRNNFKTEEY-OH; N-terminus and C-terminus assumed) | detected in the lower side of the chambers | – | – | – | – | Ratio −cells/initial [5]: 0.072; Ratio +cells/−cells ([5]; [125I]-peptide in bottom chamber of filters covered with vs without endothelial cells): 0.37; Ratio +cells/initial [5, 6]: 0.027 |
| C[C@@H](O)[C@H](N)C(=O)N[C@@H](Cc1ccccc1)C(=O)N[C@@H](Cc1ccccc1)C(=O)N[C@@H](Cc1ccc(O)cc1)C(=O)NCC(=O)NCC(=O)N[C@@H](CS)C(=O)N[C@@H](CCCNC(=N)N)C(=O)NCC(=O)N[C@@H](CCCCN)C(=O)N[C@@H](CCCNC(=N)N)C(=O)N[C@@H](CC(N)=O)C(=O)N[C@@H](CC(N)=O)C(=O)N[C@@H](Cc1ccccc1)C(=O)N[C@@H](CCCCN)C(=O)N[C@H](C(=O)N[C@@H](CCC(=O)O)C(=O)N[C@@H](CCC(=O)O)C(=O)N[C@@H](Cc1ccc(O)cc1)C(=O)N[C@@H](CS)C(=O)O)[C@@H](C)O [Peptide 72, TFFYGGCRGKRNNFKTEEYC] (H-TFFYGGCRGKRNNFKTEEYC-OH; N-terminus and C-terminus assumed) | detected in the lower side of the chambers | – | – | – | – | – |
| TFFYGGCRGNRNNFLTAEY [Peptide 45, T F F Y G G C R G N R N N F L T A E Y] | detected in the lower side of the chambers | – | – | – | – | – |
| TFFYGGKRGKRNNFKREKY [Peptide 81, T F F Y G G K R G K R N N F K R E K Y] | detected in the lower side of the chambers | – | – | – | – | – |
| T F F Y G G C R G K R N N F K T K E Y (TFFYGGCRGKRNNFKTKEY-NH2) [Peptide 76] | detected in the lower side of the chambers | highest Pe | 16 ml/100 g | 40% | 40 ml/100 g | Ratio +cells/initial [5]: 0.084; Ratio −cells/initial [5]: 0.222 |
| R F K Y G G C L G N K N N Y L R L K Y (RFKYGGCLGNKNNYLRLKY-NH2) [Peptide 91] | detected in the lower side of the chambers | highest Pe | 24 ml/100 g | 59% | 47 ml/100 g | Ratio +cells/initial [5]: 0.158; Ratio −cells/initial [5]: 0.406 |
| TFFYGGCRGKRNNFKTKRY [Peptide 78, T F F Y G G C R G K R N N F K T K R Y] | detected in the lower side of the chambers | highest Pe | 181 ml/100 g | 90% | 198 ml/100 g | Volume of distribution, Parenchyma [4]: 16 ml/100 g; Volume of distribution, Parenchyma % [4]: 10% |
| TFFYGGKRGKRNNFKTEEY [Peptide 77, T F F Y G G K R G K R N N F K T E E Y] | detected in the lower side of the chambers | – | – | – | – | – |
| TFFYGGKRGKRNNFKRAKY [Peptide 82, T F F Y G G K R G K R N N F K R A K Y] | detected in the lower side of the chambers | – | – | – | – | – |
